Assay results from patent US20100093706A1, “MULTIMEDIATOR TRANSPORTER INHIBITORS FOR USE IN TREATMENT OF CENTRAL NERVOUS SYSTEM DISORDERS” (priority 2006, published 2010).

Tests used:
[1] = biological target: T1, DAT (h) (Homo sapiens, UniProt Q01959); assay: cell-based; assay type: cell-based; conditions: human; nM; read-out: DAT (h) in vitro functional uptake
T1 construct: expressed in transfected cells
Protocol: (§1) Functional activity of the compounds was determined in vitro in cellular assays using recombinant human cell lines.

[2] = biological target: T2, NET (h) (Homo sapiens, UniProt P23975); assay: cell-based; assay type: cell-based; conditions: human; nM; read-out: NET (h) in vitro functional uptake
T2 construct: expressed in transfected cells; host or cells: MDCK
T2 sequence (P23975 whole entry): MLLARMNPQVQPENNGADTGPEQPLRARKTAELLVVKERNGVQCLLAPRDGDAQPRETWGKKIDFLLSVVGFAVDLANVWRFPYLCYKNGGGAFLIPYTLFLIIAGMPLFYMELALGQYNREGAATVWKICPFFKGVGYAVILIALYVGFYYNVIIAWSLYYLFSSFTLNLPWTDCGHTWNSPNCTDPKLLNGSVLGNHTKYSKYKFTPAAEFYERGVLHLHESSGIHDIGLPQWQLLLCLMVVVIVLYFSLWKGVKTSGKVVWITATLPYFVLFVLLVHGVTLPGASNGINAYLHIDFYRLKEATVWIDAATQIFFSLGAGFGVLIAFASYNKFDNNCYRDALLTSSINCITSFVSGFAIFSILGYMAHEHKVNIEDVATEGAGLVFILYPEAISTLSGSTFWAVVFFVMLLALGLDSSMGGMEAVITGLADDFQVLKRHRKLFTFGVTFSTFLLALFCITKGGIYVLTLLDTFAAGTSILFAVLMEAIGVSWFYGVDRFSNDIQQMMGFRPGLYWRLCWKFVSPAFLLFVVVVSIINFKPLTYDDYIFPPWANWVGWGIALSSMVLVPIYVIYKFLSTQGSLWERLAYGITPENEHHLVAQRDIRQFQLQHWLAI
Protocol: as §1

[3] = biological target: DAT (r) (Rattus norvegicus, UniProt P23977); assay: in vitro functional uptake, rat DAT; assay type: cell-based
Chain of DAT (r) (P23977 whole entry): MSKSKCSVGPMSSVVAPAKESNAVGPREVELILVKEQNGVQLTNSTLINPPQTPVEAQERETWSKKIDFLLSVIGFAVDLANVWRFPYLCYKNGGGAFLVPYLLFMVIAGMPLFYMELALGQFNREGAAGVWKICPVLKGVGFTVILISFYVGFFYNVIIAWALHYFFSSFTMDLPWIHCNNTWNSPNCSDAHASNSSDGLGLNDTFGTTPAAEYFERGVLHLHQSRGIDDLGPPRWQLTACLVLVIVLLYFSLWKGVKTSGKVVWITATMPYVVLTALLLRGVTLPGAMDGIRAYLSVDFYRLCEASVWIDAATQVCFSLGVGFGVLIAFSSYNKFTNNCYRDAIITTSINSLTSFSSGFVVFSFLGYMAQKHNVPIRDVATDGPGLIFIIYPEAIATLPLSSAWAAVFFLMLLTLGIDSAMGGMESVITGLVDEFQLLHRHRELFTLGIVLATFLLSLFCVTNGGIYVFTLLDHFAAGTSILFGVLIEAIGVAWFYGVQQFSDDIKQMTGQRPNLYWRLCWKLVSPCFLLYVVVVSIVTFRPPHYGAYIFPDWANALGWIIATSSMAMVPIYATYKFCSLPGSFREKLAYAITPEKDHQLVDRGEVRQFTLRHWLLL

[4] = biological target: 5-HT (Homo sapiens, UniProt P31645); assay: cell-based; conditions: own compounds tested as racemic mixtures of enriched diastereomers
Chain of 5-HT (P31645 whole entry): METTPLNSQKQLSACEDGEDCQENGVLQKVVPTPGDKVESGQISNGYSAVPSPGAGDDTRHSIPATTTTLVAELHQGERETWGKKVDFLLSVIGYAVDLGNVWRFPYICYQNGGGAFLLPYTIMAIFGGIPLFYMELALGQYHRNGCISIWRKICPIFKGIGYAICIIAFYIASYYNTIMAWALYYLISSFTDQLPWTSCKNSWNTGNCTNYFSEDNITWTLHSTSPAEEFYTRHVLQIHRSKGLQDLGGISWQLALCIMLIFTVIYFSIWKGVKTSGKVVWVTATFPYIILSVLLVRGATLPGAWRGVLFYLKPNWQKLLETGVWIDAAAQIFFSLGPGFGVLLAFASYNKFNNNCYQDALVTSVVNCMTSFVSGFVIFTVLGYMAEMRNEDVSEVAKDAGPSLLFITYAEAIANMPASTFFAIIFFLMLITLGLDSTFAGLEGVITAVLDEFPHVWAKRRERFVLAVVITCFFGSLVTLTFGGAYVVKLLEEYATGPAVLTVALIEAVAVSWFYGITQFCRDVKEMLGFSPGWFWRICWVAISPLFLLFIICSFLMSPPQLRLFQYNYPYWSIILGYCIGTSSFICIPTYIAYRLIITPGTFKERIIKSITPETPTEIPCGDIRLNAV

[5] = biological target: Histamine H1 receptor (Homo sapiens, UniProt P35367); assay: in vitro selectivity panel, Histamine H1 receptor; assay type: binding
Chain of Histamine H1 receptor (P35367 whole entry): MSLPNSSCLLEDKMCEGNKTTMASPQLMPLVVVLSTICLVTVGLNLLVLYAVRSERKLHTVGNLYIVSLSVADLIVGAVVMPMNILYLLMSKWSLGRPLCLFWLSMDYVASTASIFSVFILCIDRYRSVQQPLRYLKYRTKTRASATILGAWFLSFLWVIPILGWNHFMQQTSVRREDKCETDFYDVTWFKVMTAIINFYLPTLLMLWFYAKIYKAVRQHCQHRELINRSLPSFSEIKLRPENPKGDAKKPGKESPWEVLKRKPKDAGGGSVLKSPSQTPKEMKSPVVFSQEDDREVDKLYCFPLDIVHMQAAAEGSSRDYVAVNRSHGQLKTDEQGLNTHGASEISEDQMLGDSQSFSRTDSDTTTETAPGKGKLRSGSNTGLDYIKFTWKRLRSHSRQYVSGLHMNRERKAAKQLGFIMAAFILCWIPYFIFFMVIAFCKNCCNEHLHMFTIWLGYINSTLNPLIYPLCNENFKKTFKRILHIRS
Protocol: (§2) The in vitro selectivity profile of two representative subject compounds, (3) and (1), are also tested against a panel of other receptors, including the M1 receptor, Histamine H1 receptor, sigma-1 (σ1) receptor, β1-adrenergic receptor, and dopamine D2 receptor. Representative results are listed below in Table III: […]

[6] = biological target: sigma-1 (σ1) receptor (Homo sapiens, UniProt Q99720); assay: in vitro selectivity panel, sigma-1 receptor; assay type: binding
Chain of sigma-1 (σ1) receptor (Q99720 whole entry): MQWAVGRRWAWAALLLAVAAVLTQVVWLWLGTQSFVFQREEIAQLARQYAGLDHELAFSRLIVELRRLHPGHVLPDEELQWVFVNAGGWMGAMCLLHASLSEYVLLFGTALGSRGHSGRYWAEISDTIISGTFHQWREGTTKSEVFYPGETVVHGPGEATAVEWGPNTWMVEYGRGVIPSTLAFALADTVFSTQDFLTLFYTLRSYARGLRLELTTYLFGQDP
Protocol: as §2

[7] = biological target: β1-adrenergic receptor (Homo sapiens, UniProt P08588); assay: in vitro selectivity panel, β1-adrenergic receptor; assay type: binding
Chain of β1-adrenergic receptor (P08588 whole entry): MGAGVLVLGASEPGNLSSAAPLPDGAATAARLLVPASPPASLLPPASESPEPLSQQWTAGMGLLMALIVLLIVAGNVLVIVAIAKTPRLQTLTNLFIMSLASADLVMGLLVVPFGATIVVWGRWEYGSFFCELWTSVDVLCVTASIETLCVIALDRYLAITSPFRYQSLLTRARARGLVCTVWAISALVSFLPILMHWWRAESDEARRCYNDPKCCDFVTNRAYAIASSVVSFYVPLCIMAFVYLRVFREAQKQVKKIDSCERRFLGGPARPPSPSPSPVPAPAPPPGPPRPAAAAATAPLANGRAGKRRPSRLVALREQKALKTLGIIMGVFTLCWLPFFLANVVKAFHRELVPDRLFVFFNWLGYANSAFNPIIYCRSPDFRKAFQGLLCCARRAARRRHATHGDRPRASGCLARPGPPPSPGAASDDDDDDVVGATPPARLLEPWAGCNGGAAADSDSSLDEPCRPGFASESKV
Protocol: as §2

[8] = biological target: dopamine D2 receptor (Homo sapiens, UniProt P14416); assay: in vitro selectivity panel, dopamine D2 receptor; assay type: binding
Chain of dopamine D2 receptor (P14416 whole entry): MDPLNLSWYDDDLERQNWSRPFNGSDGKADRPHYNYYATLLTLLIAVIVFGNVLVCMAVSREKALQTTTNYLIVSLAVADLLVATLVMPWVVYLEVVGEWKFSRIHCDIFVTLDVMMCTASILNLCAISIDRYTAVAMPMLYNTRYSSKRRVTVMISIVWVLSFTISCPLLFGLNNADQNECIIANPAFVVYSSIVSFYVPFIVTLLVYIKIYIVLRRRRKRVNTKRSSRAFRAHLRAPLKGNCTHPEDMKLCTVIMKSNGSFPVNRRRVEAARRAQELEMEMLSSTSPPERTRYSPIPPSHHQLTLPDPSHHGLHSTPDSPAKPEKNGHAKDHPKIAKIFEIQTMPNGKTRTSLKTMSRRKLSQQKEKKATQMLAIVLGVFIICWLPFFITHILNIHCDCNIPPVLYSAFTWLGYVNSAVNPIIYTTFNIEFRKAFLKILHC
Protocol: as §2

[9] = in vivo; conditions: rat

T1 sequence (Q01959 whole entry): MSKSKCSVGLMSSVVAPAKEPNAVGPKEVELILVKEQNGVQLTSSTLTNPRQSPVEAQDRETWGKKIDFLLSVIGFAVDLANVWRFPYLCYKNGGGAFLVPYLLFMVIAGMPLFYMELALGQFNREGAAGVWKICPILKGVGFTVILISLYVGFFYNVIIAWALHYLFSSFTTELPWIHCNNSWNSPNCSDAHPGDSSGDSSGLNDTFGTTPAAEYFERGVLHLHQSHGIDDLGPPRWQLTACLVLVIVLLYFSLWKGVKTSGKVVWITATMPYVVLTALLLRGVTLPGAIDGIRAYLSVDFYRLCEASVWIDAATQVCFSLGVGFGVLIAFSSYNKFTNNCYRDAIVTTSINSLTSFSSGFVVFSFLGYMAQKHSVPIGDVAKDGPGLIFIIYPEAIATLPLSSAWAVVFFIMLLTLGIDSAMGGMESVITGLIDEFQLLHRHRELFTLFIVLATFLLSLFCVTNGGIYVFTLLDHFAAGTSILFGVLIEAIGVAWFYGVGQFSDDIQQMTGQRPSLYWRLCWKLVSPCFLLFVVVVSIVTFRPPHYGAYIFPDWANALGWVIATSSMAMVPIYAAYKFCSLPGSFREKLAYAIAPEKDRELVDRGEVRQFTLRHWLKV

CC1CCN(CC2(c3ccc(Cl)cc3)CCC2)CC1COc1ccc(C(F)(F)F)cc1 (centres unmarked) [(1)]
EC50 [1]: 1 nM
EC50 [2]: 1000 nM
EC50 [3]: 80 nM
IC50 [4]: 1200 nM
Histamine H1 (nM)h [5]: 5000 nM
Sigma σ1 (nM)h [6]: 5000 nM
β1-adrenergic (nM)h [7]: 5000 nM
D2 (nM)h [8]: 1000 nM
Vd [9]: 6 L/kg
half-life ([9]; iv): 200 min
bioavailability ([9]; po): 40%
